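GI50: concentration for 50% inhibition of growth. TGI denotes the concentration required for complete inhibition of growth.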
Assays:
Assay in all cases: NCI tumour cell line growth inhibition, 384-well format
MCF7 breast = tested on: MCF7 breast
OVCAR-5 ovarian = tested on: OVCAR-5 ovarian
K-562 leukemia = tested on: K-562 leukemia
TK-10 renal = tested on: TK-10 renal
HOP-62 NSCLC = tested on: HOP-62 NSCLC
UO-31 renal = tested on: UO-31 renal
SF-295 CNS = tested on: SF-295 CNS
HS 578T breast = tested on: HS 578T breast
KM12 colon = tested on: KM12 colon
U251 glioblastoma = tested on: U251 glioblastoma
EKVX NSCLC = tested on: EKVX NSCLC
HOP-92 NSCLC = tested on: HOP-92 NSCLC
M14 melanoma = tested on: M14 melanoma
SNB-19 CNS = tested on: SNB-19 CNS
BT-549 breast = tested on: BT-549 breast
786-0 renal = tested on: 786-0 renal
SK-MEL-5 melanoma = tested on: SK-MEL-5 melanoma
A549 NSCLC = tested on: A549 NSCLC
NCI-H322M lung = tested on: NCI-H322M lung
CCRF-CEM leukemia = tested on: CCRF-CEM leukemia
DU-145 prostate = tested on: DU-145 prostate
COLO 205 colon = tested on: COLO 205 colon
IGROV1 ovarian = tested on: IGROV1 ovarian
NCI/ADR-RES ovarian = tested on: NCI/ADR-RES ovarian
OVCAR-8 ovarian = tested on: OVCAR-8 ovarian
MDA-MB-231 breast = tested on: MDA-MB-231 breast
T-47D breast = tested on: T-47D breast
MDA-MB-468 breast = tested on: MDA-MB-468 breast
RPMI-8226 leukemia = tested on: RPMI-8226 leukemia
SNB-75 CNS = tested on: SNB-75 CNS
MOLT-4 leukemia = tested on: MOLT-4 leukemia
HCT-116 colon = tested on: HCT-116 colon
SW-620 colon = tested on: SW-620 colon
HL-60(TB) leukemia = tested on: HL-60(TB) leukemia
NCI-H23 lung = tested on: NCI-H23 lung
NCI-H460 NSCLC = tested on: NCI-H460 NSCLC
MDA-MB-435 melanoma = tested on: MDA-MB-435 melanoma
OVCAR-4 ovarian = tested on: OVCAR-4 ovarian
SF-268 CNS = tested on: SF-268 CNS
SK-OV-3 ovarian = tested on: SK-OV-3 ovarian
SK-MEL-28 melanoma = tested on: SK-MEL-28 melanoma
CAKI-1 renal = tested on: CAKI-1 renal
UACC-62 melanoma = tested on: UACC-62 melanoma
NCI-H226 lung = tested on: NCI-H226 lung
RXF 393 renal = tested on: RXF 393 renal
NCI-H522 lung = tested on: NCI-H522 lung
MALME-3M melanoma = tested on: MALME-3M melanoma
OVCAR-3 ovarian = tested on: OVCAR-3 ovarian
SN12C renal = tested on: SN12C renal
UACC-257 melanoma = tested on: UACC-257 melanoma
HCC-2998 colon = tested on: HCC-2998 colon
SF-539 CNS = tested on: SF-539 CNS
ACHN renal = tested on: ACHN renal
LOX IMVI melanoma = tested on: LOX IMVI melanoma
A498 renal = tested on: A498 renal
HT29 colon = tested on: HT29 colon
HCT-15 colon = tested on: HCT-15 colon
PC-3 prostate = tested on: PC-3 prostate

## C[C@@H]1CN(Cc2ccc(F)cc2)[C@@H](C)CN1C(=O)c1cc2c(C(=O)C(=O)N(C)C)cn(C)c2cc1Cl
MCF7 breast
  GI50: 10.8 µM
  TGI: 24.1 µM
OVCAR-5 ovarian
  GI50: 19.9 µM
  TGI: 52.1 µM
K-562 leukemia
  GI50: 7.01 µM
  TGI: 20.8 µM
TK-10 renal
  GI50: 23.8 µM
  TGI: 52.3 µM
HOP-62 NSCLC
  GI50: 10.8 µM
  TGI: 24.1 µM
UO-31 renal
  GI50: 15.1 µM
  TGI: 29.6 µM
SF-295 CNS
  GI50: 16.4 µM
  TGI: 31.9 µM
HS 578T breast
  GI50: 12.7 µM
  TGI: 26.5 µM
KM12 colon
  GI50: 14.8 µM
  TGI: 29.7 µM
U251 glioblastoma
  GI50: 16.4 µM
  TGI: 30.7 µM
EKVX NSCLC
  GI50: 15.3 µM
  TGI: 35 µM
HOP-92 NSCLC
  GI50: 17.1 µM
  TGI: 31.2 µM
M14 melanoma
  GI50: 14.1 µM
  TGI: 28.8 µM
SNB-19 CNS
  GI50: 24.1 µM
  TGI: 58.1 µM
BT-549 breast
  GI50: 17.7 µM
  TGI: 31.8 µM
786-0 renal
  GI50: 13.6 µM
  TGI: 28.5 µM
SK-MEL-5 melanoma
  GI50: 7.47 µM
  TGI: 20.5 µM
A549 NSCLC
  GI50: 13.8 µM
  TGI: 35.5 µM
NCI-H322M lung
  GI50: 17.5 µM
  TGI: 35.3 µM
CCRF-CEM leukemia
  GI50: 15.3 µM
  TGI: 28.8 µM
DU-145 prostate
  GI50: 19.1 µM
  TGI: 37.8 µM
COLO 205 colon
  GI50: 10.9 µM
  TGI: 23.7 µM
IGROV1 ovarian
  GI50: 14.2 µM
  TGI: 28.3 µM
NCI/ADR-RES ovarian
  GI50: 18.3 µM
  TGI: 41.6 µM
OVCAR-8 ovarian
  GI50: 17.9 µM
  TGI: 38.9 µM
MDA-MB-231 breast
  GI50: 23.2 µM
  TGI: 61.9 µM
T-47D breast
  GI50: 1.99 µM
  TGI: 17.2 µM
MDA-MB-468 breast
  GI50: 2.8 µM
  TGI: 17.4 µM
RPMI-8226 leukemia
  GI50: 12.2 µM
  TGI: 24.7 µM
SNB-75 CNS
  GI50: 15.7 µM
  TGI: 33.8 µM
MOLT-4 leukemia
  GI50: 12.9 µM
  TGI: 25.7 µM
HCT-116 colon
  GI50: 16.1 µM
  TGI: 30.5 µM
SW-620 colon
  GI50: 18 µM
  TGI: 40.9 µM
HL-60(TB) leukemia
  GI50: 20.7 µM
  TGI: 35.1 µM
NCI-H23 lung
  GI50: 20.1 µM
  TGI: 44.5 µM
NCI-H460 NSCLC
  GI50: 12.7 µM
  TGI: 26.9 µM
MDA-MB-435 melanoma
  GI50: 15.5 µM
  TGI: 31.1 µM
OVCAR-4 ovarian
  GI50: 22.4 µM
  TGI: 46.9 µM
SF-268 CNS
  GI50: 2.33 µM
  TGI: 14.7 µM
SK-OV-3 ovarian
  GI50: 19.6 µM
  TGI: 42.7 µM
SK-MEL-28 melanoma
  GI50: 16.1 µM
  TGI: 31.6 µM
CAKI-1 renal
  GI50: 15.4 µM
  TGI: 41 µM
UACC-62 melanoma
  GI50: 8.17 µM
  TGI: 20.9 µM
NCI-H226 lung
  GI50: 10.3 µM
  TGI: 23.9 µM
RXF 393 renal
  GI50: 14.9 µM
  TGI: 28.9 µM
NCI-H522 lung
  GI50: 20.5 µM
  TGI: 38.1 µM
MALME-3M melanoma
  GI50: 18.3 µM
  TGI: 32.6 µM
OVCAR-3 ovarian
  GI50: 17.8 µM
  TGI: 32.1 µM
SN12C renal
  GI50: 15.8 µM
  TGI: 31.7 µM
UACC-257 melanoma
  GI50: 19.7 µM
  TGI: 34.1 µM
HCC-2998 colon
  GI50: 17.1 µM
  TGI: 31.5 µM
SF-539 CNS
  GI50: 17.2 µM
  TGI: 31.3 µM
ACHN renal
  GI50: 14.4 µM
  TGI: 43 µM
LOX IMVI melanoma
  GI50: 14.8 µM
  TGI: 28.5 µM
A498 renal
  GI50: 13.6 µM
  TGI: 29.2 µM
HT29 colon
  GI50: 12.7 µM
  TGI: 27 µM
HCT-15 colon
  GI50: 19.8 µM
  TGI: 39.3 µM
PC-3 prostate
  GI50: 18.6 µM
  TGI: 35 µM

— PubChem BioAssay (NCI)
